Calls of active or inactive are those of the source. No cut-off for these calls is given here.
Key:
HepG2 [1] = experiment: Cytotoxicity against human HepG2 cells assessed as growth inhibition after 72 hrs by MTT assay; type: functional, cell-based; conditions: HepG2, 72 h
HT-29 [2] = experiment: Potency index, ratio of maslinic acid IC50 to compound IC50 for human HT-29 cells; type: functional
HepG2 [3] = experiment: Potency index, ratio of maslinic acid IC50 to compound IC50 for human HepG2 cells; type: functional
[4] = Induction of apoptosis in mouse B16F10 cells assessed as early apoptotic cells at cytotoxic IC50 after 72 hrs by Annexin V-FITC/propidium iodide staining based flow cytometry (reference value: 0.75 +/- 0.07%); type: functional, B16-F10
[5] = Induction of apoptosis in mouse B16F10 cells assessed as necrotic cells at cytotoxic IC50 after 72 hrs by Annexin V-FITC/propidium iodide staining based flow cytometry (reference value: 0.75 +/- 0.07%); type: functional, B16-F10
HT-29 [6] = experiment: Induction of apoptosis in human HT-29 cells assessed as early apoptotic cells at cytotoxic IC50 after 72 hrs by Annexin V-FITC/propidium iodide staining based flow cytometry (reference value: 1.65 +/- 0.07%); type: functional
HT-29 [7] = experiment: Induction of apoptosis in human HT-29 cells assessed as late apoptotic cells at cytotoxic IC50 after 72 hrs by Annexin V-FITC/propidium iodide staining based flow cytometry (reference value: 0.65 +/- 0.35%); type: functional
HepG2 [8] = experiment: Induction of apoptosis in human HepG2 cells assessed as live cells at cytotoxic IC50 after 72 hrs by Annexin V-FITC/propidium iodide staining based flow cytometry (reference value: 99.55 +/- 0.07%); type: functional
HepG2 [9] = experiment: Induction of apoptosis in human HepG2 cells assessed as early apoptotic cells at cytotoxic IC50 after 72 hrs by Annexin V-FITC/propidium iodide staining based flow cytometry (reference value: 0.3 +/- 0.01%); type: functional
HepG2 [10] = experiment: Induction of apoptosis in human HepG2 cells assessed as late apoptotic cells at cytotoxic IC50 after 72 hrs by Annexin V-FITC/propidium iodide staining based flow cytometry relative to control; type: functional
[11] = Cell cycle arrest in mouse B16F10 cells assessed as accumulation at G0/G1 phase at cytotoxic IC50 after 72 hrs by propidium iodide staining based flow cytometry (reference value: 50.69 +/- 0.61%); type: functional, B16-F10
[12] = Cell cycle arrest in mouse B16F10 cells assessed as accumulation at G2/M phase at cytotoxic IC50 after 72 hrs by propidium iodide staining based flow cytometry (reference value: 1.01 +/- 0.13%); type: functional, B16-F10
HT-29 [13] = experiment: Cell cycle arrest in human HT-29 cells assessed as accumulation at G2/M phase at cytotoxic IC50 after 72 hrs by propidium iodide staining based flow cytometry (reference value: 6.23 +/- 1.7%); type: functional
HepG2 [14] = experiment: Cell cycle arrest in human HepG2 cells assessed as accumulation at S phase at cytotoxic IC50 after 72 hrs by propidium iodide staining based flow cytometry (reference value: 54.71 +/- 2.37%); type: functional
HepG2 [15] = experiment: Cell cycle arrest in human HepG2 cells assessed as accumulation at G2/M phase at cytotoxic IC50 after 72 hrs by propidium iodide staining based flow cytometry (reference value: 8.47 +/- 2.55%); type: functional
[16] = Disruption of mitochondrial membrane potential in mouse B16F10 cells assessed as rhodamine123 positive cells at cytotoxic IC50 after 72 hrs by propidium iodide staining based fluorescence spectroscopic analysis (reference value: 95.6 +/- 0.57%); type: functional, B16-F10
HT-29 [17] = experiment: Disruption of mitochondrial membrane potential in human HT-29 cells assessed as rhodamine123 positive cells at cytotoxic IC50 after 72 hrs by propidium iodide staining based fluorescence spectroscopic analysis (reference value: 94.25 +/- 0.35%); type: functional
HT-29 [18] = experiment: Disruption of mitochondrial membrane potential in human HT-29 cells assessed as rhodamine123 negative cells at cytotoxic IC50 after 72 hrs by propidium iodide staining based fluorescence spectroscopic analysis (reference value: 5.8 +/- 0.42%); type: functional
HepG2 [19] = experiment: Disruption of mitochondrial membrane potential in human HepG2 cells assessed as rhodamine123 positive cells at cytotoxic IC50 after 72 hrs by propidium iodide staining based fluorescence spectroscopic analysis (reference value: 88.3 +/- 8.87%); type: functional
HepG2 [20] = experiment: Disruption of mitochondrial membrane potential in human HepG2 cells assessed as rhodamine123 negative cells at cytotoxic IC50 after 72 hrs by propidium iodide staining based fluorescence spectroscopic analysis (reference value: 11.7 +/- 6.8%); type: functional
B16-F10 [21] = experiment: Induction of apoptosis in mouse B16F10 cells assessed as nucleus containing nicked DNA at cytotoxic IC50 after 72 hrs by Hoechst staining based fluorescence microscopic analysis; type: functional, cell-based
B16-F10 [22] = experiment: Induction of apoptosis in mouse B16F10 cells assessed as cell shrinkage at cytotoxic IC50 after 72 hrs by Hoechst staining based fluorescence microscopic analysis; type: functional
B16-F10 [23] = experiment: Induction of apoptosis in mouse B16F10 cells assessed as spherical cell shape at cytotoxic IC50 after 72 hrs by Hoechst staining based fluorescence microscopic analysis; type: functional
B16-F10 [24] = experiment: Induction of apoptosis in mouse B16F10 cells assessed as bubble shaped region in cell surface at cytotoxic IC50 after 72 hrs by Hoechst staining based fluorescence microscopic analysis; type: functional
B16-F10 [25] = experiment: Induction of apoptosis in mouse B16F10 cells assessed as chromatin condensation at cytotoxic IC50 after 72 hrs by Hoechst staining based fluorescence microscopic analysis; type: functional, cell-based
HT-29 [26] = experiment: Induction of apoptosis in human HT-29 cells assessed as nucleus containing nicked DNA at cytotoxic IC50 after 72 hrs by Hoechst staining based fluorescence microscopic analysis; type: functional, cell-based
HT-29 [27] = experiment: Induction of apoptosis in human HT-29 cells assessed as chromatin condensation at cytotoxic IC50 after 72 hrs by Hoechst staining based fluorescence microscopic analysis; type: functional, cell-based
HT-29 [28] = experiment: Induction of apoptosis in human HT-29 cells assessed as disruption of cell membrane integrity at cytotoxic IC50 after 72 hrs by Hoechst staining based fluorescence microscopic analysis; type: functional
HepG2 [29] = experiment: Induction of apoptosis in human HepG2 cells assessed as nucleus containing nicked DNA at cytotoxic IC50 after 72 hrs by Hoechst staining based fluorescence microscopic analysis; type: functional, cell-based
HepG2 [30] = experiment: Induction of apoptosis in human HepG2 cells assessed as cell shrinkage at cytotoxic IC50 after 72 hrs by Hoechst staining based fluorescence microscopic analysis; type: functional
HepG2 [31] = experiment: Induction of apoptosis in human HepG2 cells assessed as spherical cell shape at cytotoxic IC50 after 72 hrs by Hoechst staining based fluorescence microscopic analysis; type: functional
HepG2 [32] = experiment: Induction of apoptosis in human HepG2 cells assessed as bubble shaped region in cell surface at cytotoxic IC50 after 72 hrs by Hoechst staining based fluorescence microscopic analysis; type: functional
HepG2 [33] = experiment: Induction of apoptosis in human HepG2 cells assessed as chromatin condensation at cytotoxic IC50 after 72 hrs by Hoechst staining based fluorescence microscopic analysis; type: functional, cell-based
HepG2 [34] = experiment: Induction of apoptosis in human HepG2 cells assessed as loss of nuclear architecture at cytotoxic IC50 after 72 hrs by Hoechst staining based fluorescence microscopic analysis; type: functional, cell-based
HepG2 [35] = experiment: Induction of apoptosis in human HepG2 cells assessed as disruption of cell membrane integrity at cytotoxic IC50 after 72 hrs by Hoechst staining based fluorescence microscopic analysis; type: functional

| SMILES | IC50 (HepG2 [1]) | Ratio IC50 (HT-29 [2]) | Ratio IC50 (HepG2 [3]) | Activity [4] | Activity [5] | Activity (HT-29 [6]) | Activity (HT-29 [7]) | Activity (HepG2 [8]) | Activity (HepG2 [9]) | Activity (HepG2 [10]) | Activity [11] | Activity [12] | Activity (HT-29 [13]) | Activity (HepG2 [14]) | Activity (HepG2 [15]) | Activity [16] | Activity (HT-29 [17]) | Activity (HT-29 [18]) | Activity (HepG2 [19]) | Activity (HepG2 [20]) | other results |
| --- | --- | --- | --- | --- | --- | --- | --- | --- | --- | --- | --- | --- | --- | --- | --- | --- | --- | --- | --- | --- | --- |
| CC1(C)CC[C@]2(C(=O)NCCCOCCOCCOCCCN)CC[C@]3(C)C(=CC[C@@H]4[C@@]5(C)C[C@@H](O)[C@H](O)C(C)(C)[C@@H]5CC[C@]43C)[C@@H]2C1 | 7.68 µM | 2.7 | 12.9 | 60.25% | 0.2% | 31.25% | 7.6% | 19.75% | 46.75% | 33.05% | 66.66% | 10.91% | 13.1% | 50.45% | 9.34% | 48.05% | 63.1% | 36.95% | 59.2% | 40.85% | Activity (B16-F10 [21]): Active; Activity (B16-F10 [22]): Active; Activity (B16-F10 [23]): Active; Activity (B16-F10 [24]): Active; Activity (B16-F10 [25]): Active; Activity (HT-29 [26]): Active; Activity (HT-29 [27]): Active; Activity (HT-29 [28]): Active; Activity (HepG2 [29]): Active; Activity (HepG2 [30]): Active; Activity (HepG2 [31]): Active; Activity (HepG2 [32]): Active; Activity (HepG2 [33]): Active; Activity (HepG2 [34]): Active; Activity (HepG2 [35]): Active |
| COCCOCCOCC(=O)O[C@@H]1C[C@]2(C)[C@H]3CC=C4[C@@H]5CC(C)(C)CC[C@]5(C(=O)O)CC[C@@]4(C)[C@]3(C)CC[C@H]2C(C)(C)[C@H]1OC(=O)COCCOCCOC | 59.9 µM | 0.8 | 1.7 | 32.8% | 0% | 40.1% | 0.15% | 55.7% | 14.75% | 29.1% | 87.93% | 0% | 0.76% | 26.7% | 15.45% | 75.05% | 94.3% | 5.7% | 56.7% | 43.2% | Activity (B16-F10 [21]): Active; Activity (B16-F10 [22]): Active; Activity (B16-F10 [23]): Active; Activity (B16-F10 [24]): Active; Activity (B16-F10 [25]): Active; Activity (HT-29 [26]): Active; Activity (HT-29 [27]): Active; Activity (HT-29 [28]): Active; Activity (HepG2 [29]): Active; Activity (HepG2 [30]): Active; Activity (HepG2 [31]): Active; Activity (HepG2 [32]): Active; Activity (HepG2 [33]): Active; Activity (HepG2 [34]): Active; Activity (HepG2 [35]): Active |

— ChEMBL document CHEMBL3822440, “Semi-synthesis and antiproliferative evaluation of PEGylated pentacyclic triterpenes” (Eur J Med Chem, 2016)
